From patent publication US8497133B1, “Terpene media compositions for eluting compounds from matrices and methods for making and using them” (Medtronic MiniMed, Inc., priority 2009, dated 2013)
Where two headings read alike, the source gives them in different places.

What was measured:
[1] = Elution of steroid from drug eluting leads/electrodes in conventional media (PBS without additives); type: physicochemical; conditions: conventional media systems, e.g. media with just a surfactant; result in words
Source text: The percent elution was less than 7% in 10 days from the controlled-release device (CRD) leads when PBS ([…]) without any additives was used.

[2] = type: physicochemical
Experimental: To evaluate buffers with different pH, Dexamethasone sodium phosphate can be dissolved in an elution media (e.g. one of the different embodiments of the invention disclosed herein). […] This concentration was about 10 times the concentration that might be observed if the drug from the typical device was completely eluted in about 75 mL of media.

[3] = cited from earlier work

C[C@@H]1C[C@H]2[C@@H]3CCC4=CC(=O)C=C[C@]4(C)[C@@]3(F)[C@@H](O)C[C@]2(C)[C@@]1(O)C(=O)COP(=O)(O)O [Dexamethasone sodium phosphate]
elution in conventional media/solvents [1]: minimal | stability with respect to pH (order) [2]: pH 4>pH 7.5>pH 9 | solubility in water ([3]; result in words, listed as dexamethasone sodium phosphate): water soluble | solubility in water ([3]; result in words): freely soluble

OCc1ccccc1 [Benzyl alcohol, Phenylmethanol]
solubility in water [3]: 4 g/100 mL
